# According to patent publication US6083976A, “Method of synthesis of derivatives of aloesin” (Univera Pharmaceuticals, Inc., priority 1999, dated 2000):
# Like-named read-outs stand apart in the source and are kept apart here.
# How the values were obtained:
# tyrosinase [1] = details: cited from earlier work
# tyrosinase [2] = experiment: Tyrosinase activity assay using L-DOPA as a substrate; type: biochemical; details: for IC50: L-DOPA 0.4 mM, 48 U tyrosinase, absorbance at 475 nm, read-out: average concentration for 50% tyrosinase inhibition
# Experimental: Example 2 illustrates the general method for determination of tyrosinase inhibition by the alkylated aloesins, using octylaloesin for purposes of illustration.
# A tyrosinase activity assay was performed using L-DOPA as a substrate. Each 750 μL assay mixture contained KH2 PO4 /K2 HPO4 at a concentration of 50 mM, L-DOPA at a concentration of 0.4 mM, 48 U of tyrosinase activity (tyrosinase obtained from SIGMA at 4,400 U/mg), and varying concentrations of the inhibitor being tested. The progress of the reaction was monitored by measuring the absorbance of the reaction mixture at 475 nm.
# [3] = relative to hydroquinone; cited from earlier work
IC50 (tyrosinase [2]) [µM],Structure (SMILES),mode of tyrosinase inhibition (Lineweaver Burk diagram) (tyrosinase [1]),"quantity required to achieve a similar effect, compared to the quantity of hydroquinone used [3]",also measured
–,"COc1cc(/C=C/C(=O)O[C@@H]2[C@@H](O)[C@H](O)[C@@H](CO)O[C@H]2c2c(O)cc(C)c3c(=O)cc(CC(C)=O)oc23)ccc1O [2""-O-feruloylaloesin]",non-competitive inhibitors of tyrosinase,–,–
250,CC(=O)Cc1cc(=O)c2c(C)cc(O)c([C@@H]3O[C@H](CO)[C@@H](O)[C@H](O)[C@H]3O)c2o1 [Aloesin],non-competitive inhibitors of tyrosinase,–,"IC50 (tyrosinase [1]; substrate L-DOPA, read-out: concentration for 50% inhibition of tyrosinase activity): 200 µM"
–,OC[C@H]1O[C@@H](Oc2ccc(O)cc2)[C@H](O)[C@@H](O)[C@@H]1O [arbutin],–,over 100 times,–
107,CCCCCCCCOc1cc(C)c2c(=O)cc(CC(C)=O)oc2c1[C@@H]1O[C@H](CO)[C@@H](O)[C@H](O)[C@H]1O [Octylaloesin],–,–,fold more potent as a tyrosinase inhibitor than aloesin (tyrosinase [2]; ratio of 50% inhibition concentrations): approximately 2.3 fold
–,O=C1O[C@H]([C@@H](O)CO)C(O)=C1O [ascorbic acid],–,17 times,–
